Assays:
[1] = 101 kPa, Liquid
[2] = xn = mol fraction of the nth substance listed; conditions: 101 kPa, Liquid

CCCCCCCCCCCO [1-undecanol]
[1]
Conditions	mass density [kg/m3]	viscosity [mPa·s]
293.15 K	832.5	17.18
298.15 K	829	14.02

CCCCCCCCCCCO [1-undecanol] + CCCO
[2]
Conditions	mass density, 293.15 K [kg/m3]	mass density, 298.15 K [kg/m3]	viscosity, 293.15 K [mPa·s]	viscosity, 298.15 K [mPa·s]
x2 = 0	832.5	829	17.18	14.02
x2 = 0.1283	830.7	827.3	15.08	12.37
x2 = 0.2079	829.6	826.2	13.44	11.11
x2 = 0.3145	827.9	824.4	11.56	9.558
x2 = 0.4057	826.1	822.6	10.06	8.394
x2 = 0.5075	824	820.5	8.321	6.998
x2 = 0.6096	821.3	817.7	6.814	5.804
x2 = 0.6937	818.7	815.1	5.634	4.823
x2 = 0.7922	815	811.4	4.399	3.808
x2 = 0.8907	810.3	806.5	3.274	2.857

CCCCCCCO [heptan-1-ol]
[1]
Conditions	mass density [kg/m3]	viscosity [mPa·s]
293.15 K	822.2	7.104
298.15 K	818.7	5.993

CCCCCCCO [heptan-1-ol] + CCCCCCCCCCCO
[2], x1 = 1
Conditions	mass density [kg/m3]	viscosity [mPa·s]
293.15 K	822.2	7.104
298.15 K	818.7	5.993

CCCCCCCO [heptan-1-ol] + CCCCCCCCCO
[2], x1 = 1
Conditions	mass density [kg/m3]	viscosity [mPa·s]
293.15 K	822.2	7.104
298.15 K	818.7	5.993

CCCCCCCO [heptan-1-ol] + CCCCCO
[2]
Conditions	mass density, 293.15 K [kg/m3]	mass density, 298.15 K [kg/m3]	viscosity, 293.15 K [mPa·s]	viscosity, 298.15 K [mPa·s]
x2 = 0	822.2	818.7	7.104	5.993
x2 = 0.123	821.4	818	6.696	5.692
x2 = 0.2117	820.8	817.4	6.374	5.408
x2 = 0.3131	820.2	816.7	6.079	5.158
x2 = 0.4177	819.4	815.9	5.758	4.899
x2 = 0.5088	818.8	815.3	5.421	4.652
x2 = 0.5897	818.2	814.7	5.177	4.431
x2 = 0.6996	817.3	813.8	4.887	4.189
x2 = 0.7885	816.5	812.9	4.651	3.997
x2 = 0.8909	815.6	812	4.287	3.717

CCCCCCCO [heptan-1-ol] + CCCO
[2]
Conditions	mass density, 293.15 K [kg/m3]	mass density, 298.15 K [kg/m3]	viscosity, 293.15 K [mPa·s]	viscosity, 298.15 K [mPa·s]
x2 = 0	822.2	818.7	7.104	5.993
x2 = 0.09	821.2	817.7	6.596	5.614
x2 = 0.1795	820.2	816.7	6.08	5.158
x2 = 0.3279	818.2	814.6	5.288	4.519
x2 = 0.4103	816.9	813.3	4.862	4.174
x2 = 0.5058	815.3	811.7	4.282	3.714
x2 = 0.6106	813.5	809.8	3.825	3.342
x2 = 0.6991	811.6	807.9	3.443	3.009
x2 = 0.7989	809.3	805.6	3.011	2.634
x2 = 0.8882	807	803.2	2.643	2.34

CCCCCCCCCO [nonan-1-ol]
[1]
Conditions	mass density [kg/m3]	viscosity [mPa·s]
293.15 K	827.9	11.68
298.15 K	824.4	9.671

CCCCCCCCCO [nonan-1-ol] + CCCCCCCCCCCO
[2], x1 = 1
Conditions	mass density [kg/m3]	viscosity [mPa·s]
293.15 K	827.9	11.68
298.15 K	824.4	9.671

CCCCCCCCCO [nonan-1-ol] + CCCCCCCO
[2]
Conditions	mass density, 293.15 K [kg/m3]	mass density, 298.15 K [kg/m3]	viscosity, 293.15 K [mPa·s]	viscosity, 298.15 K [mPa·s]
x2 = 0	827.9	824.4	11.68	9.671
x2 = 0.1181	827	823.6	11.16	9.249
x2 = 0.2245	826.6	823.2	10.56	8.777
x2 = 0.307	826.2	822.8	10.02	8.328
x2 = 0.4093	825.7	822.3	9.551	7.951
x2 = 0.5045	825.1	821.7	9.146	7.628
x2 = 0.5969	824.7	821.2	8.61	7.211
x2 = 0.6924	824.2	820.7	8.347	6.976
x2 = 0.7866	823.6	820.2	7.968	6.662
x2 = 0.8883	823	819.5	7.439	6.266

CCCCCCCCCO [nonan-1-ol] + CCCCCO
[2]
Conditions	mass density, 293.15 K [kg/m3]	mass density, 298.15 K [kg/m3]	viscosity, 293.15 K [mPa·s]	viscosity, 298.15 K [mPa·s]
x2 = 0	827.9	824.4	11.68	9.671
x2 = 0.1155	826.6	823.1	10.72	8.891
x2 = 0.2155	825.6	822.2	9.71	8.083
x2 = 0.3161	824.5	821.1	8.734	7.313
x2 = 0.4052	823.6	820.1	8.071	6.815
x2 = 0.5066	822.4	818.9	7.27	6.128
x2 = 0.6079	821	817.5	6.582	5.55
x2 = 0.7036	819.6	816.1	5.898	5.017
x2 = 0.7935	818.2	814.7	5.192	4.473
x2 = 0.8913	816.6	813	4.631	3.976

CCCCCCCCCO [nonan-1-ol] + CCCO
[2]
Conditions	mass density, 293.15 K [kg/m3]	mass density, 298.15 K [kg/m3]	viscosity, 293.15 K [mPa·s]	viscosity, 298.15 K [mPa·s]
x2 = 0	827.9	824.4	11.68	9.671
x2 = 0.0808	826.5	823.1	10.86	9.007
x2 = 0.2286	824.6	821.2	9.037	7.55
x2 = 0.3296	823.1	819.6	7.921	6.701
x2 = 0.4104	821.7	818.2	7.097	6.002
x2 = 0.5176	819.5	816	6.051	5.147
x2 = 0.6051	817.6	814	5.268	4.513
x2 = 0.6801	815.5	811.9	4.501	3.904
x2 = 0.7961	811.9	808.3	3.583	3.129
x2 = 0.8945	808.3	804.5	2.9	2.554

CCCCCO [pentan-1-ol]
[1]
Conditions	mass density [kg/m3]	viscosity [mPa·s]
293.15 K	814.6	4.029
298.15 K	811	3.494

CCCCCO [pentan-1-ol] + CCCCCCCCCCCO
[2], x1 = 1
Conditions	mass density [kg/m3]	viscosity [mPa·s]
293.15 K	814.6	4.029
298.15 K	811	3.494

CCCCCO [pentan-1-ol] + CCCCCCCCCO
[2], x1 = 1
Conditions	mass density [kg/m3]	viscosity [mPa·s]
293.15 K	814.6	4.029
298.15 K	811	3.494

CCCCCO [pentan-1-ol] + CCCCCCCO
[2], x1 = 1
Conditions	mass density [kg/m3]	viscosity [mPa·s]
293.15 K	814.6	4.029
298.15 K	811	3.494

CCCCCO [pentan-1-ol] + CCCO
[2]
Conditions	mass density, 293.15 K [kg/m3]	mass density, 298.15 K [kg/m3]	viscosity, 293.15 K [mPa·s]	viscosity, 298.15 K [mPa·s]
x2 = 0	814.6	811	4.029	3.494
x2 = 0.0959	813.7	810.1	3.825	3.325
x2 = 0.2143	812.8	809.1	3.584	3.126
x2 = 0.2969	812	808.4	3.446	3.008
x2 = 0.4097	810.9	807.2	3.214	2.828
x2 = 0.5053	809.9	806.2	3.072	2.695
x2 = 0.5963	809	805.2	2.908	2.537
x2 = 0.6924	807.8	804	2.758	2.402
x2 = 0.7892	806.6	802.8	2.582	2.283
x2 = 0.8797	805.4	801.5	2.442	2.126

CCCO [propan-1-ol] + CCCCCCCCCCCO
[2], x1 = 1
Conditions	mass density [kg/m3]	viscosity [mPa·s]
293.15 K	803.5	2.272
298.15 K	799.6	1.966

CCCO [propan-1-ol] + CCCCCCCCCO
[2], x1 = 1
Conditions	mass density [kg/m3]	viscosity [mPa·s]
293.15 K	803.5	2.272
298.15 K	799.6	1.966

CCCO [propan-1-ol] + CCCCCCCO
[2], x1 = 1
Conditions	mass density [kg/m3]	viscosity [mPa·s]
293.15 K	803.5	2.272
298.15 K	799.6	1.966

CCCO [propan-1-ol] + CCCCCO
[2], x1 = 1
Conditions	mass density [kg/m3]	viscosity [mPa·s]
293.15 K	803.5	2.272
298.15 K	799.6	1.966
